“Also recorded” adds a separate entry of the source.

In the assay the test system is genome-wide H3K4me3 in spleen cells. Put plainly: ChIP-seq of H3K4me3 in spleen cells of treated mice. It is filed as in vivo, mouse. As to conditions: 10 mg/kg/day; vs Kmt2d+/+ littermates on vehicle; FIG. 25E, 27B. As for the experimental part:
Spleens were dissected from eight mice, four from each kmt2d genotype (+/βGeo or +/+) where half of each genotype was treated with AR-42 and half with vehicle only. Spleens were minced and passed through a 40 µm cell strainer to obtain single cell suspensions. 10 million cells were used for each ChIP-seq experiment following the native chromatin immunoprecipitation protocol, as previously described (Gilfillan et al. (2012) BMC Genomics 13:645), using a ChIP-grade antibody against H3K4me3 (9727, Cell Signaling Technology, Beverly, Mass.).
Sequencing was performed using a MiSeq system (Illumina, San Diego, Calif.). 4.8-9.6 million paired-end 26 bp reads were obtained per sample (Table 2; nReads=number of reads, alignRate=fraction aligned to genome; FRIP=fraction of reads in peaks). Reads were aligned to the m. musculus genome, version mm 10, using Bowtie 2 (Langmead and Salzberg (2012) Nat. Methods. 9: 357-9). Each sample was examined with regard to alignment rate as well as FRIP (fraction of reads in peaks), a measure of the ChIP efficiency (Table 2). […] For analysis, reads were merged into one meta-sample and peak calling was performed using MACS version 1.4.2 (Zhang et al. (2008) Genome Biol. 9: R137). […] This created a peak by sample matrix of read counts. […] Fold change and overall abundance was calculated as per edgeR. […]

On to `CC(C)[C@H](C(=O)Nc1ccc(C(=O)NO)cc1)c1ccccc1` [AR-42, (S)—N-hydroxy-4-(3-methyl-2-phenylbutanamido)benzamide], for which the “genome-wide H3K4me3 in spleen cells of Kmt2d+/βGeo mice” value was “genome-wide increase in H3K4me3; also recorded: overcorrection of genome-wide H3K4me3; also recorded: improved”.

The record behind these values is patent publication US11357748B2, “Methods for treating mendelian disorders of the epigenetic machinery” (THE JOHNS HOPKINS UNIVERSITY, priority 2014, dated 2022).
